Assay results reported in the supplement of paper PMC8837787.

Test system: Saccharomyces cerevisiae ABC16-Green Monster
Conditions: 18 h; 30 °C; YPD
Method: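 Growth inhibition of the drug-sensitive S. cerevisiae ABC16-Green Monster strain (16 ABC transporters deleted) in YPD at 30 °C for 18 h. […] dilution series […] in biological replicates; IC50 from OD600 (18 h minus 0 h) fitted by variable-slope nonlinear regression in GraphPad Prism. Library compounds were first screened at 150 µM, and only those with at least 70% inhibition went to dose-response; the rest are marked inactive.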

Structure (SMILES) | IC50 growth inhibition [µM]
O=C(CCCCCCC(=O)Nc1ccccc1)NO [Vorinostat] | > 75
C=CCc1ccc(O)c(-c2ccc(O)c(CC=C)c2)c1 [Honokiol] | 13.2
OC(c1cc(C(F)(F)F)nc2c(C(F)(F)F)cccc12)C1CCCCN1 (stereo unspecified) [Mefloquine] | 29.9
Cc1cc(=O)nc(N/N=C/c2cc(C)n(CC(F)(F)F)c2C)[nH]1 | 81.9
Cn1ncc2c(N3CCOCC3)nc(NCCc3c[nH]c4ccccc34)nc21 | 69.3
COc1ccc(/C=C/c2ccc3c(Cl)cc(Cl)c(O)c3n2)cc1 | 22.3
COC(=O)Nc1nc2ccc(C(=O)c3ccccc3)cc2[nH]1 [Mebendazole] | 5.42
CC(c1cc(Cl)cc(Cl)c1)N(C)c1ncc2c(N)nc(N)nc2n1 (stereo unspecified) | 40.1
CCC1C=CC=CCC(C)C(O)C(C)(O)C(=O)C(C)C(O)C(C)C(=O)C(C)C(O)C(C)C=CC(=O)OC2C(C)C(CC1)OC1(CCC(C)C(CC(C)O)O1)C2C (stereo unspecified) [Oligomycin] | > 75
CN(C)c1cc(NC(=O)Nc2ccccc2)c2ccccc2n1 | 39.4
CCC(C)CC(C)CCCCCCCCC(=O)NC1CC(O)C(NCCN)NC(=O)C2C(O)CCN2C(=O)C(C(O)CCN)NC(=O)C(C(O)C(O)c2ccc(O)cc2)NC(=O)C2CC(O)CN2C(=O)C(C(C)O)NC1=O (stereo unspecified) [Caspofungin] | 0.0305
O=C(Nc1ccc2c(c1)B(O)OC2)c1ccccc1C(F)(F)F | 1.72
CC(CN1c2ccccc2Sc2ccccc21)N(C)C (stereo unspecified) [Promethazine] | 98.9
CC(C)(C)C1CCc2[nH]c3ccccc3c(=O)c2C1 (stereo unspecified) [GNF-Pf-3815] | 60.3
CC(C=CC(=O)NO)=CC(C)C(=O)c1ccc(N(C)C)cc1 (stereo unspecified) [Trichostatin A] | 50.6
Cc1ccc(-n2nc(C(C)(C)C)cc2NC(=O)NCc2cc(F)ccc2Oc2ccc3c(cnn3CCO)c2)cc1 [Pexmetinib] | > 75
c1ccc(CNc2nc(Nc3ccccc3)nc3ccccc23)cc1 | 8.62
c1ccc(-c2cn3nc(N4CCN(Cc5cn6ccccc6n5)CC4)sc3n2)cc1 | 50.8
COCC1OC(=O)c2coc3c2C1(C)C1=C(C3=O)C2CCC(=O)C2(C)CC1OC(C)=O (stereo unspecified) [Wortmannin] | 27.7
O=C(CC1NCCCC1O)Cn1cnc2ccccc2c1=O (stereo unspecified) [Febrifugine] | > 75
CC(=O)N(C1=C(N2CCOCC2)C(=O)c2ccccc2C1=O)c1cccc(Cl)c1 [GNF-Pf-2288] | 41.7

Structure (SMILES) | IC50 growth inhibition [µM]
NC(CC(=O)c1ccc(Cl)cc1Cl)C(Cl)(Cl)Cl (stereo unspecified) | 46.4
COc1ccc(CN2CCN(C(c3ccc(F)cc3)c3ccc(F)cc3)CC2)c(OC)c1OC [Lomerizine] | 14.2
Cc1cc(C(C)(C)CC(C)(C)C)ccc1OCCOCC[N+](C)(C)Cc1ccccc1 [KAAA726] | 3.74
COc1ccc2sc(N(Cc3cccnc3)C(=O)c3ccc(C#N)cc3)nc2c1 | 3.85
CC(C(=O)O)c1ccc2c(c1)[nH]c1ccc(Cl)cc12 (stereo unspecified) [Carprofen] | > 75
Cc1cccc2sc(C(=O)NCc3cccc(NS(N)(=O)=O)c3)c(Cl)c12 | 70.6
CN(C)CCCN1c2ccccc2CCc2ccc(Cl)cc21.Cl [Clomipramine] | 18.3
CC1CCC2C(C)C(=O)OC3OC4(C)CCC1C32OO4 (stereo unspecified) [Artemisinin] | 34.3
Cc1nn(C(=O)Nc2cccc(C(F)(F)F)c2)c(C)c1Sc1ncccn1 | 45
CC(C)/N=c1\cc2n(-c3ccc(Cl)cc3)c3ccccc3nc-2cc1Nc1ccc(Cl)cc1 [Clofazimine] | 5.81
COC=C(C(=O)OC)c1ccccc1Oc1cc(Oc2ccccc2C#N)ncn1 [Azoxystrobin] | > 75
Cl.c1ccc(C2CCCC2NC2=NCCCCCCCCCCC2)cc1 (stereo unspecified) [MDL-12] | 54.6
COc1cc(Nc2ncc(F)c(Nc3ccc4c(n3)NC(=O)C(C)(C)O4)n2)cc(OC)c1OC [Tamatinib besilate] | > 75
CCOC(=O)c1c(NC(=O)CNCc2ccccn2)sc(CC)c1C | 47.8
Clc1cccc(C(c2ccc(CN3CCNCC3)cc2)n2ccnc2)c1 (stereo unspecified) | 28.7
CCCC(=O)NC(c1ccc(Cl)cc1)c1ccc2cccnc2c1O (stereo unspecified) [GNF-Pf-3257] | 55.9
COc1ccc(Oc2ccc([C@@H](C)N(C)c3ncc4c(N)nc(N)nc4n3)cc2)cc1 | 30.5
CN(C)CCNc1nc2sc3c(c2c(=O)n1Cc1ccco1)CCCCC3 | 32.5
CN(Cc1nc(N)c2c3c(sc2n1)CCCC3)Cc1cccs1 | 107
O=c1c2ccccc2[nH]c2ccc(I)cc12 [GNF-Pf-4577] | > 150
